Where two headings read alike, the source gives them in different places. Each block holds one molecule with its values, some of them ahead of it.
How the values were obtained:
[1] = solubility in a physiological salt solution; assay type: physicochemical
Procedure: The thus-obtained compound V is dissolved in methanol, and a) when R4 is a methoxyl group, a dilute water solution of sodium hydroxide is added to the solution to hydrolyze it, the thus-reacted solution is washed with ethyl acetate, and the water phase is concentrated, followed by acidifying with 10 % hydrochloric acid or b) when R4 is a benzyloxyl group, hydrogen gas is added to compound V in the presence of palladium on carbon, the used palladium on carbon is removed, and the methanol is distilled off, to obtain a compound represented by the constitutional formula: [drawing 11] wherein R1 and R2 are as defined above, said compound being shown as compound VI. The thus-obtained compound VI is dissolved in a solvent such as acetone, the thus-obtained solution is reacted with a dilute water solution of sodium hydroxide, the thus-reacted solution is filtered to obtain a deposit, the thus-obtained deposit is washed with said solvent, and the thus-washed deposit is dried to obtain a novel lignan compound that is one of the present inventions and that is represented by the constitutional formula: [drawing 12] wherein R1 and R2 are as defined above and R5 is a residual group of the sodium salt of an amino acid, said compound being referred to as compound VII. […]

[2] = solubility in water / purified water; assay type: physicochemical
Procedure: However, intravenous administrations are necessary to promptly produce drug effects in acute phase symptoms in hepatic lesion, etc., or to lower effective doses. An administration by intravenous drop infusion is not preferable as it causes patients physical and psychological pain. However, due to the low solubility in water (0.15 mg/ml of water), an aqueous injection faces a difficulty in maintaining an effective amount of the compound dissolved in an adequate amount of liquid for a one-time administration, because the amount of liquid per dose of the injection is limited to 10 to 20 ml. To make the amount of liquid adequate for the administration of an amount of the effective compound, a large amount of a solubilizing agent such as polyethylene glycol must be used. However, since this causes adverse effects, such as a hemolysis reaction, the amount used should be limited to a certain extent. Thus the development of a material having medicinal effects equivalent to said compounds and a proper solublity in water, as a substance for intravenous injection, has been sought.
The thus-obtained compound V is dissolved in methanol, and a) when R4 is a methoxyl group, a dilute water solution of sodium hydroxide is added to the solution to hydrolyze it, the thus-reacted solution is washed with ethyl acetate, and the water phase is concentrated, followed by acidifying with 10 % hydrochloric acid or b) when R4 is a benzyloxyl group, hydrogen gas is added to compound V in the presence of palladium on carbon, the used palladium on carbon is removed, and the methanol is distilled off, to obtain a compound represented by the constitutional formula: [drawing 11] wherein R1 and R2 are as defined above, said compound being shown as compound VI. The thus-obtained compound VI is dissolved in a solvent such as acetone, the thus-obtained solution is reacted with a dilute water solution of sodium hydroxide, the thus-reacted solution is filtered to obtain a deposit, the thus-obtained deposit is washed with said solvent, and the thus-washed deposit is dried to obtain a novel lignan compound that is one of the present inventions and that is represented by the constitutional formula: [drawing 12] wherein R1 and R2 are as defined above and R5 is a residual group of the sodium salt of an amino acid, said compound being referred to as compound VII. In this reaction, when instead of a dilute water solution of sodium hydroxide, a dilute water solution of another pharmaceutically acceptable metal hydroxide is used, then a compound is obtained wherein R5 is, instead of the residual group of the sodium salt of amino acid, a pharmaceutically acceptable salt other than the residual group of the sodium salt of the amino acid. Said salts are, for example, a potassium salt and a calcium salt.

[3] = in words, compared with the corresponding derivative of gomisin A

- solubility in a physiological salt solution [1]: 30 mg/10 ml
SMILES: COc1cc2c(c(OC)c1OC)-c1c(cc3c(c1OC)OCO3)C[C@H](C)[C@@](C)(OC(=O)CCC(=O)NCC(=O)O)C2 [gomisin A glycinosodium succinate]

- solubility in purified water [2]: 30 mg/2 ml
- solubility relative to the solubility of gomisin A ([2]; ratio to gomisin A): 100 times
SMILES: COc1cc2c(c(OC)c1OC)-c1c(cc3c(c1OC)OCO3)C[C@H](C)[C@@](C)(OC(=O)CCC(=O)O)C2 [gomisin Asodium succinate, gomisin A sodium succinate]

SMILES: COc1cc2c(c(OC)c1OC)-c1c(cc(OC)c(OC)c1OC)C[C@](C)(OC(=O)CCC(=O)NCC(=O)O)[C@@H](C)C2 [schizandrin glycinosodium succinate]
- solubility in a physiological salt solution [1, 3]: quite equivalent to the solubility of each corresponding derivative of gomisin A
- solubility in purified water [2, 3]: quite equivalent to the solubility of each corresponding derivative of gomisin A

SMILES: COc1cc2c(c(OC)c1OC)-c1c(cc(OC)c(OC)c1OC)C[C@](C)(OC(=O)CCC(=O)O)[C@@H](C)C2 [schizandrin sodium succinate]
- solubility in purified water [2, 3]: quite equivalent to the solubility of each corresponding derivative of gomisin A

Reference: EP0532328A2, “Novel lignans, intermediates thereof and a process for preparing the intermediates” (TSUMURA & CO., priority 1991, dated 1993)
